Assay results from patent US20240041042A1, “1-(PYRIDYL)-5-AZINYLPYRAZOLE DERIVATIVES, AND THEIR USE FOR CONTROL OF UNDESIRED PLANT GROWTH” (Bayer Aktiengesellschaft, priority 2020, published 2024).
Where two headings read alike, the source gives them in different places.

Experiments:
Assay type in all cases: in vivo
Viola tricolor (VIOTR) [1] = assay: Pre-emergence herbicidal action against VIOTR
In short: (§1)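 Read-out is visual percent damage relative to untreated pots, with 100% meaning dead plants and 0% meaning no difference, assessed roughly three weeks after treatment. Compounds were applied pre-emergence to the covering soil at up to 320 g/ha.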

[2] = system: Triticum aestivum (TRZAS); conditions: crop plant compatibility, 80 g/ha, effect vs untreated controls
In short: (§2)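 Foliar application at the one-leaf stage: WP/EC formulation, 0.5% additive, 600 l/ha water. Greenhouse-grown in sandy loam. Endpoint is visual % injury relative to untreated controls at about 3 weeks.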

Zea mays (ZEAMX) [3] = conditions: crop plant compatibility, 80 g/ha, effect vs untreated controls
In short: as §2

Oryza sativa (ORYSA) = conditions: crop plant compatibility, effect in comparison to untreated controls
In short: as §2

[4] = system: Amaranthus retroflexus (AMARE); assay: Post-emergence herbicidal action against AMARE
In short: (§3)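 Doses of 320 g/ha or lower, suffixes a, b and c marking different dosages, were applied post-emergence at the one-leaf stage in 600 l/ha water with 0.5% additive. Damage was assessed visually after about 3 weeks in the greenhouse.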

[5] = system: Triticum aestivum (TRZAS); conditions: pre-emergence, 80 g/ha, crop plant compatibility, in comparison to untreated controls
In short: (§4)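 Scoring: visual, % of untreated control, about 3 weeks after a pre-emergence application to the soil surface. Application used WP or EC formulations diluted in water with 0.5% additive at 600 l/ha; dosage levels are marked by suffixes a, b and c.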

Zea mays (ZEAMX) [6] = conditions: pre-emergence, 80 g/ha, crop plant compatibility, in comparison to untreated controls
In short: as §4

[7] = system: Verconica persica (VERPE); assay: Pre-emergence herbicidal action against VERPE; conditions: dosage 320 g/ha
In short: as §1

Lolium rigidum (LOLRI) = assay: Pre-emergence herbicidal action against LOLRI; conditions: dosage 320 g/ha
In short: as §1

[8] = system: Abutilon theophrasti (ABUTH); assay: Post-emergence herbicidal action against ABUTH; conditions: visual rating about 3 weeks after treatment vs untreated controls (100% = plants have died, 0% = like control plants)
In short: as §3

Setaria viridis (SETVI) [9] = assay: Pre-emergence herbicidal action against SETVI; conditions: dosage 320 g/ha
In short: as §1

[10] = system: Digitaria sanguinalis (DIGSA); assay: Post-emergence herbicidal action against DIGSA; conditions: 320 g/ha, visual rating about 3 weeks after treatment
In short: as §3

[11] = system: Echinochloa crus-galli (ECHCG); assay: Pre-emergence herbicidal action against ECHCG; conditions: dosage 320 g/ha
In short: as §1

[12] = system: Alopecurus myosuroides (ALOMY); assay: Pre-emergence herbicidal action against ALOMY; conditions: 320 g/ha; scored visually after about 3 weeks; 100% = plants have died
In short: as §1

[13] = system: Amaranthus retroflexus (AMARE); assay: Pre-emergence herbicidal action against AMARE; conditions: visual scoring after about 3 weeks vs untreated controls
In short: as §1

[14] = system: Polygonum convolvulus (POLCO); assay: Pre-emergence herbicidal action against POLCO; conditions: dosage 320 g/ha
In short: as §1

Viola tricolor (VIOTR) [15] = assay: Post-emergence herbicidal action against VIOTR; conditions: 320 g/ha
In short: as §3

[16] = system: Pharbitis purpurea (PHBPU); assay: Post-emergence herbicidal action against PHBPU; conditions: dosage 320 g/ha
In short: as §3

[17] = system: Polygonum convolvulus (POLCO); assay: Post-emergence herbicidal action against POLCO; conditions: dosage 320 g/ha
In short: as §3

[18] = system: Matricaria inodora (MATIN); assay: Pre-emergence herbicidal action against MATIN; conditions: dosage 320 g/ha
In short: as §1

Setaria viridis (SETVI) [19] = assay: Post-emergence herbicidal action against SETVI; conditions: dosage 320 g/ha
In short: as §3

[20] = system: Verconica persica (VERPE); assay: Post-emergence herbicidal action against VERPE
In short: as §3

[21] = system: Pharbitis purpurea (PHBPU); assay: Pre-emergence herbicidal action against PHBPU
In short: as §1

SMILES	Pre-emergence action against VIOTR in % (Viola tricolor (VIOTR) [1]; 320 g/ha, Viola tricolor) [%]	Post-emergence action against TRZAS in % [2] [%]	Post-emergence action against ORYSA in % (Oryza sativa (ORYSA); 80 g/ha) [%]	Pre-emergence action against TRZAS in % [5] [%]	Pre-emergence action against VERPE in % [7] [%]	Pre-emergence action against ECHCG in % [11] [%]	Pre-emergence action against AMARE in % ([13]; 320 g/ha) [%]	Pre-emergence action against POLCO in % [14] [%]	Post-emergence action against PHBPU in % [16] [%]	Pre-emergence action against MATIN in % [18] [%]	Post-emergence action against SETVI in % (Setaria viridis (SETVI) [19]) [%]	further results
COC(=O)[C@@H](C)Oc1nn(-c2ncccc2F)c(-c2cccnc2)c1C#N [Example I-04]	100	20	0	0	100	90	100	100	100	90	100	Post-emergence action against ZEAMX in % (Zea mays (ZEAMX) [3]): 0%; Post-emergence action against ORYSA in % (Oryza sativa (ORYSA); 320 g/ha): 0%; Post-emergence action against AMARE in % ([4]; 80 g/ha, visual rating about 3 weeks after treatment vs untreated controls (100% = plants have died, 0% = like control plants)): 90%; Post-emergence action against AMARE in % ([4]; 320 g/ha, visual rating about 3 weeks after treatment): 90%; Pre-emergence action against ZEAMX in % (Zea mays (ZEAMX) [6]): 0%; Pre-emergence action against LOLRI in % (Lolium rigidum (LOLRI)): 90%; Post-emergence action against ABUTH in % ([8]; 80 g/ha): 90%; Post-emergence action against ABUTH in % ([8]; 320 g/ha): 90%; Pre-emergence action against SETVI in % (Setaria viridis (SETVI) [9]): 100%; Post-emergence action against DIGSA in % [10]: 80%; Pre-emergence action against ALOMY [12]: 100%; Pre-emergence action against AMARE in % ([13]; 80 g/ha): 90%; Post-emergence action against VIOTR in % (Viola tricolor (VIOTR) [15]): 80%; Post-emergence action against POLCO in % [17]: 90%
COC(=O)CCOC(=O)COc1nn(-c2ncccc2C(F)(F)F)c(-c2cncc(F)c2)c1Br [Example I-160]	100	20	0	20	90	90	80	90	90	80	80	Pre-emergence action against VIOTR in % (Viola tricolor (VIOTR) [1]; dosage 80 g/ha): 90%; Post-emergence action against VERPE in % ([20]; 320 g/ha, VERPE): 90%; Post-emergence action against VERPE in % ([20]; dosage 80 g/ha): 80%; Pre-emergence action against PHBPU in % ([21]; dosage 80 g/ha): 80%; Pre-emergence action against PHBPU in % ([21]; dosage 320 g/ha): 90%
